From patent US10807952B2 (Achillion Pharmaceuticals, Inc., priority 2015, dated 2020)

Target: Human Factor D (Homo sapiens (Human), UniProt P00746)
Assay: Human Factor D assay (Z-L-Lys-SBzl / DTNB, absorbance at 405 nm)
Format: biochemical
Conditions: Table 4; Human Factor D 80 nM, assay of Example 13
Method in brief: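 Human serum-purified Factor D (80 nM final) was preincubated with compound for 5 min at room temperature in 50 mM Tris, 1M NaCl, pH 7.5. IC50 came from nonlinear regression of rate versus compound concentration.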

Chain of Human Factor D (P00746 26-253): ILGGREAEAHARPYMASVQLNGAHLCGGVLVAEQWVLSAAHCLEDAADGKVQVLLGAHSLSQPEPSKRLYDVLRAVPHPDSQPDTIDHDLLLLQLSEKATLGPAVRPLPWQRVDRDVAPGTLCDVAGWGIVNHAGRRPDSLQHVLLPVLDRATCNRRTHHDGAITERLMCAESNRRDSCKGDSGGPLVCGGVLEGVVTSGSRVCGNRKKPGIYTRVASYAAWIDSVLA

Row | Compound | IC50 [nM]
1 | CC(=O)c1nn(CC(=O)N2C[C@H](F)C[C@H]2C(=O)Nc2cccc(-c3cc(C(=O)O)c4nc[nH]c4c3)c2F)c2ccccc12 [Compound 80, 6-(3-((2S,4R)-1-(2-(3-acetyl-1H-indazol-1-yl)acetyl)-4-fluoropyrrolidine-2-carboxamido)-2-fluorophenyl)-1H-benzo[d]imidazole-4-carboxylic acid] | < 1000
2 | COC(=O)Nc1nc2ccc(-c3cccc(NC(=O)[C@@H]4C[C@@H](F)CN4C(=O)Cn4nc(C(C)=O)c5ccccc54)c3F)c(Cl)c2[nH]1 [Compound 81, methyl (6-(3-((2S,4R)-1-(2-(3-acetyl-1H-indazol-1-yl)acetyl)-4-fluoropyrrolidine-2-carboxamido)-2-fluorophenyl)-7-chloro-1H-benzo[d]imidazol-2-yl)carbamate] | < 1000
3 | CC(=O)c1nn(CC(=O)N2C[C@H](F)C[C@H]2C(=O)Nc2cccc(-c3ccc4c(c3)CCC(=O)N4)c2F)c2ccccc12 [Compound 82, (2S,4R)-1-(2-(3-acetyl-1H-indazol-1-yl)acetyl)-4-fluoro-N-(2-fluoro-3-(2-oxo-1,2,3,4-tetrahydroquinolin-6-yl)phenyl)pyrrolidine-2-carboxamide] | < 1000
4 | CC(=O)c1nn(CC(=O)N2C[C@H](F)C[C@H]2C(=O)Nc2cccc(-c3ccc4nccnc4c3)c2F)c2ccccc12 [Compound 83, (2S,4R)-1-(2-(3-acetyl-1H-indazol-1-yl)acetyl)-4-fluoro-N-(2-fluoro-3-(quinoxalin-6-yl)phenyl)pyrrolidine-2-carboxamide] | < 1000
5 | CC(=O)c1nn(CC(=O)N2C[C@H](F)C[C@H]2C(=O)Nc2cccc(-c3ccc4ncn(CCN)c4c3Cl)c2F)c2ccccc12 [Compound 84, (2S,4R)-1-(2-(3-acetyl-1H-indazol-1-yl)acetyl)-N-(3-(1-(2-aminoethyl)-7-chloro-1H-benzo[d]imidazol-6-yl)-2-fluorophenyl)-4-fluoropyrrolidine-2-carboxamide] | 1000 to 10000
6 | CC(=O)c1nn(CC(=O)N2C[C@H](F)C[C@H]2C(=O)Nc2cccc(-c3ccc4[nH]ccc4c3)c2F)c2ccccc12 [Compound 85, (2S,4R)-1-(2-(3-acetyl-1H-indazol-1-yl)acetyl)-4-fluoro-N-(2-fluoro-3-(1H-indol-5-yl)phenyl)pyrrolidine-2-carboxamide] | < 1000
7 | CC(=O)c1nn(CC(=O)N2[C@@H]3C[C@@H]3C[C@H]2C(=O)Nc2cccc(-c3cc(Cl)c4[nH]ccc4c3)c2F)c2ccccc12 [Compound 86, (1R,3S,5R)-2-(2-(3-acetyl-1H-indazol-1-yl)acetyl)-N-(3-(7-chloro-1H-indol-5-yl)-2-fluorophenyl)-2-azabicyclo[3.1.0]hexane-3-carboxamide] | > 10000
8 | NC(=O)c1nn(CC(=O)N2C[C@H](F)C[C@H]2C(=O)Nc2cccc(-c3ccc4c(c3)NC(=O)C4)c2F)c2ccccc12 [Compound 88, 1-(2-((2S,4R)-4-fluoro-2-((2-fluoro-3-(2-oxoindolin-6-yl)phenyl)carbamoyl)pyrrolidin-1-yl)-2-oxoethyl)-1H-indazole-3-carboxamide] | < 1000
9 | N#CNC(=O)c1ccc(Cl)c(-c2cccc(NC(=O)[C@@H]3C[C@@H](F)CN3C(=O)Cn3nc(C(N)=O)c4ccccc43)c2F)c1 [Compound 89, 1-(2-((2S,4R)-2-((2′-chloro-5′-(cyanocarbamoyl)-2-fluoro-[1,1′-biphenyl]-3-yl)carbamoyl)-4-fluoropyrrolidin-1-yl)-2-oxoethyl)-1H-indazole-3-carboxamide] | < 1000
10 | NC(=O)c1nn(CC(=O)N2C[C@H](F)C[C@H]2C(=O)Nc2cccc(-c3cc(Cl)c4[nH]ccc4c3)c2F)c2ccccc12 [Compound 90, 1-(2-((2S,4R)-2-((3-(7-chloro-1H-indol-5-yl)-2-fluorophenyl)carbamoyl)-4-fluoropyrrolidin-1-yl)-2-oxoethyl)-1H-indazole-3-carboxamide] | < 1000
11 | NC(=O)c1nn(CC(=O)N2C[C@H](F)C[C@H]2C(=O)Nc2cccc(-c3ccc4c(c3)C(=O)NC4)c2F)c2ccccc12 [Compound 91, 1-(2-((2S,4R)-4-fluoro-2-((2-fluoro-3-(3-oxoisoindolin-5-yl)phenyl)carbamoyl)pyrrolidin-1-yl)-2-oxoethyl)-1H-indazole-3-carboxamide] | < 1000
12 | NC(=O)c1nn(CC(=O)N2C[C@H](F)C[C@H]2C(=O)Nc2cccc(-c3ccc4oc(=O)[nH]c4c3)c2F)c2ccccc12 [Compound 92, 1-(2-((2S,4R)-4-fluoro-2-((2-fluoro-3-(2-oxo-2,3-dihydrobenzo[d]oxazol-5-yl)phenyl)carbamoyl)pyrrolidin-1-yl)-2-oxoethyl)-1H-indazole-3-carboxamide] | < 1000
13 | NC(=O)c1nn(CC(=O)N2C[C@H](F)C[C@H]2C(=O)Nc2cccc(-c3ccc4c(c3)C(=O)CCC4)c2F)c2ccccc12 [Compound 93, 1-(2-((2S,4R)-4-fluoro-2-((2-fluoro-3-(8-oxo-5,6,7,8-tetrahydronaphthalen-2-yl)phenyl)carbamoyl)pyrrolidin-1-yl)-2-oxoethyl)-1H-indazole-3-carboxamide] | < 1000
14 | CC(=O)c1nn(CC(=O)N2C[C@H](F)C[C@H]2C(=O)Nc2cccc(-c3cc(C(=O)NC#N)ccc3Cl)c2F)c2ccccc12 [Compound 95, (2S,4R)-1-(2-(3-acetyl-1H-indazol-1-yl)acetyl)-N-(2′-chloro-5′-(cyanocarbamoyl)-2-fluoro-[1,1′-biphenyl]-3-yl)-4-fluoropyrrolidine-2-carboxamide] | < 1000
15 | CC(=O)c1nn(CC(=O)N2C[C@H](F)C[C@H]2C(=O)Nc2cccc(-c3ccc4c(c3)NC(=O)NC4)c2F)c2ccccc12 [Compound 96, (2S,4R)-1-(2-(3-acetyl-1H-indazol-1-yl)acetyl)-4-fluoro-N-(2-fluoro-3-(2-oxo-1,2,3,4-tetrahydroquinazolin-7-yl)phenyl)pyrrolidine-2-carboxamide] | < 1000
16 | CC(=O)c1nn(CC(=O)N2C[C@H](F)C[C@H]2C(=O)Nc2cccc(-c3nc(Cl)c4nc[nH]c4n3)c2F)c2ccccc12 [Compound 99, (2S,4R)-1-(2-(3-acetyl-1H-indazol-1-yl)acetyl)-N-(3-(6-chloro-9H-purin-2-yl)-2-fluorophenyl)-4-fluoropyrrolidine-2-carboxamide] | < 1000
17 | CC(=O)c1nn(CC(=O)N2C[C@H](F)C[C@H]2C(=O)Nc2cccc(-c3ccc4sc(N)nc4c3)c2F)c2ccccc12 [Compound 100, (2S,4R)-1-(2-(3-acetyl-1H-indazol-1-yl)acetyl)-N-(3-(2-aminobenzo[d]thiazol-5-yl)-2-fluorophenyl)-4-fluoropyrrolidine-2-carboxamide] | < 1000
18 | CC(=O)c1nn(CC(=O)N2C[C@H](F)C[C@H]2C(=O)Nc2cccc(-c3ccc4nc(N)sc4c3)c2F)c2ccccc12 [Compound 101, (2S,4R)-1-(2-(3-acetyl-1H-indazol-1-yl)acetyl)-N-(3-(2-aminobenzo[d]thiazol-6-yl)-2-fluorophenyl)-4-fluoropyrrolidine-2-carboxamide] | < 1000
19 | CC(=O)c1nn(CC(=O)N2C[C@H](F)C[C@H]2C(=O)Nc2cccc(-c3ccc4[nH]c(=O)[nH]c(=O)c4c3)c2F)c2ccccc12 [Compound 102, (2S,4R)-1-(2-(3-acetyl-1H-indazol-1-yl)acetyl)-N-(3-(2,4-dioxo-1,2,3,4-tetrahydroquinazolin-6-yl)-2-fluorophenyl)-4-fluoropyrrolidine-2-carboxamide] | < 1000
